Our source for the Ki values is patent US7851474B2, “Dipiperazinyl ketones and related analogues” (Neurogen Corporation, priority 2005, dated 2010).

One test deals with T1, chimeric human H3 receptor (Homo sapiens, UniProt Q9Y5N1, E19D).
T1 construct: made in house; host or cells: Sf9 insect cells (baculovirus infection); P2 membrane preparation
T1 sequence (Q9Y5N1 with tags, fused parts or gaps E19D): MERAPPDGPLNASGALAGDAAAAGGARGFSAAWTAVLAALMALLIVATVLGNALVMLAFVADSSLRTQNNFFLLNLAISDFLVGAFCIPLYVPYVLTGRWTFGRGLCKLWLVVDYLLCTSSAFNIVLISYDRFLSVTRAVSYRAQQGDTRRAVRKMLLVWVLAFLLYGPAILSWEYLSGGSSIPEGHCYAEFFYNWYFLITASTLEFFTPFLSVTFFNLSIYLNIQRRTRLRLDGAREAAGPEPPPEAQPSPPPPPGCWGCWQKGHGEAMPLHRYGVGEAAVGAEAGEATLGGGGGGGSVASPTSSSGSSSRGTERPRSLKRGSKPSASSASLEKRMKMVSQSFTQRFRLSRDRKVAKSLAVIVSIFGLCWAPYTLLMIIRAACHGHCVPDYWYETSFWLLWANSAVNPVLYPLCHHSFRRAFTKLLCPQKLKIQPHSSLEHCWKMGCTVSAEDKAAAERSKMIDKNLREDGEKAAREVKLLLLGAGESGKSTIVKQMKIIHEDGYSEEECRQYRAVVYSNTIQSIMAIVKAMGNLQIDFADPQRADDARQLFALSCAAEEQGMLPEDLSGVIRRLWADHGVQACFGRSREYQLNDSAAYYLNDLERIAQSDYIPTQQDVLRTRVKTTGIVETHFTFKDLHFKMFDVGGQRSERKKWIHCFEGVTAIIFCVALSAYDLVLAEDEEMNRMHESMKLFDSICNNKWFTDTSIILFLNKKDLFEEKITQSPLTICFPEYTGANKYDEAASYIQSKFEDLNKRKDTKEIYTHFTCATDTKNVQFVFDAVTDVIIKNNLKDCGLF
Nature of the test: Chimeric human H3 receptor GTP binding assay (agonist-stimulated GTP-gamma35S binding, Example 7). Format: biochemical. Particulars: "*" in Ki of Table II; assay of Example 7; read-out: Ki. Summed up: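 Sf9 membranes co-expressing the chimeric receptor and heterotrimeric G-protein subunits, 35 μg protein per tube, in pH 7.4 Tris buffer with 10 μM GDP. Test compounds at 10^−10 to 10^−6 M with 1 μM histamine, 60 min at room temperature. Filter-bound GTP-gamma^35S read by scintillation; IC50 from non-linear regression of dose-response curves.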
(In general: GTPγS resists hydrolysis and so accumulates on activated G proteins.)
A word on the Ki: it is the dissociation constant of the complex between target and ligand, obtained from inhibition or displacement. Regarding `O=C(CN1CCN(c2ccc(Cl)c(C(F)(F)F)c2)CC1)N1CCN(C2CCCC2)CC1` [Compound 466, 1-[4-chloro-3-(trifluoromethyl)phenyl]-4-[2-(4-cyclopentylpiperazin-1-yl)-2-oxoethyl]piperazine], the Ki was < 1000 nM. On the same count and under the same terms, the result for `CC(C)N1CCN(C(=O)CN2CCN(c3ccc(Cl)c(C(F)(F)F)c3)CC2)CC1` [Compound 467, 1-[4-chloro-3-(trifluoromethyl)phenyl]-4-[2-(4-isopropylpiperazin-1-yl)-2-oxoethyl]piperazine] reads < 1000 nM; that for `CC(=O)N1CCN(CC(=O)N2CCN(C3CCCC3)CC2)CC1` [Compound 485, 1-acetyl-4-[2-(4-cyclopentylpiperazin-1-yl)-2-oxoethyl]piperazine], < 1000 nM.

Still in this test, the particulars now being: Table II "Ki", symbol "*": Ki in the assay of Example 7; read-out: Ki.
For the compound `O=C(CN1CCN(c2ccccc2)CC1)N1CCN(C2CCCCC2)CC1` [Compound 805, 1-cyclohexyl-4-[(4-phenylpiperazin-1-yl)acetyl]piperazine], the inhibition constant Ki is < 1000 nM. On the same count and under the same terms, under `O=C(CN1CCN(c2cnc(-c3ccc(Oc4ccccc4)cc3)cn2)CC1)N1CCN(C2CCC2)CC1` [Compound 936, 2-{4-[2-(4-cyclobutylpiperazin-1-yl)-2-oxoethyl]piperazin-1-yl}-5-(4-phenoxyphenyl)pyrazine] stands < 1000 nM. Consider `Cc1ccc(N2CCN(CC(=O)N3CCN(C4CCCC4)CC3)CC2)cc1C` [Compound 837, 1-cyclopentyl-4-{[4-(3,4-dimethylphenyl)piperazin-1-yl]acetyl}piperazine], for which the Ki is < 1000 nM. The same measure, in the same setting: the result for `O=C(CN1CCN(c2cnc(-c3cccc(Cl)c3)cn2)CC1)N1CCN(C2CCC2)CC1` [Compound 900, 2-(3-chlorophenyl)-5-{4-[2-(4-cyclobutylpiperazin-1-yl)-2-oxoethyl]piperazin-1-yl}pyrazine] reads < 1000 nM.

The same test, now with this note: Table II, "*" in Ki; assay of Example 7; read-out: Ki.
For `Cc1cc(C)cc(-c2ccc(N3CCN(CC(=O)N4CCN(C5CCC5)CC4)CC3)cc2)c1` [Compound 743, 1-cyclobutyl-4-{[4-(3′,5′-dimethylbiphenyl-4-yl)piperazin-1-yl]acetyl}piperazine], the Ki was < 1000 nM. On the same count and under the same terms, the result for `COC[C@H]1CCCN1C(=O)c1cccc(N2CCN(CC(=O)N3CCN(C4CCC4)CC3)CC2)c1` [Compound 744, 1-cyclobutyl-4-{[4-(3-{[(2R)-2-(methoxymethyl)pyrrolidin-1-yl]car-bonyl}phenyl)piperazin-1-yl]acetyl}piperazine] reads < 1000 nM; that for `O=C(CN1CCN(c2ccc(-c3cccc(F)c3F)cc2)CC1)N1CCN(C2CCC2)CC1` [Compound 667, 1-cyclobutyl-4-{[4-(2′,3′-difluorobiphenyl-4-yl)piperazin-1-yl]acetyl}piperazine], < 1000 nM.

Still in this test, the particulars now being: Table II; assay of Example 7; "*" in Ki; read-out: Ki.
Take `CCC(C)N1CCN(C(=O)CN2CCN(c3ncc(F)cn3)CC2)CC1` (centres unmarked) [Compound 979, 2-{4-[2-(4-sec-butylpiperazin-1-yl)-2-oxoethyl]piperazin-1-yl}-5-fluoropyrimidine]: the Ki is < 1000 nM. In the case of `N#Cc1ccc(-c2ccc(N3CCN(CC(=O)N4CCN(C5CCC5)CC4)CC3)nn2)cc1` [Compound 1100, 4-(6-{4-[2-(4-cyclobutylpiperazin-1-yl)-2-oxoethyl]piperazin-1-yl}pyridazin-3-yl)benzonitrile], the Ki was < 1000 nM. On the same count and under the same terms, under `COc1ccc2cc(-c3cnc(N4CCN(CC(=O)N5CCN(C6CCC6)CC5)CC4)cn3)ccc2c1` [Compound 941, 2-{4-[2-(4-cyclobutylpiperazin-1-yl)-2-oxoethyl]piperazin-1-yl}-5-(6-methoxy-2-naphthyl)pyrazine] stands < 1000 nM; under `CCC(CC)CNC(=O)c1cccc(N2CCN(CC(=O)N3CCN(C4CCC4)CC3)CC2)c1` [Compound 1086, 3-{4-[2-(4-cyclobutylpiperazin-1-yl)-2-oxoethyl]piperazin-1-yl}-N-(2-ethylbutyl)benzamide], < 1000 nM. The same measure, in the same setting: under `N#Cc1ccc(-c2ccc(N3CCN(CC(=O)N4CCN(C5CCC5)CC4)CC3)cc2)cc1` [Compound 1119, 4′-{1-[2-(4-cyclobutylpiperazin-1-yl)-2-oxoethyl]piperazin-1-yl}biphenyl-4-carbonitrile] stands < 1000 nM. On to `O=C(NCC1CCCCC1)c1cccc(N2CCN(CC(=O)N3CCN(C4CCC4)CC3)CC2)c1` [Compound 1084, 3-{4-[2-(4-cyclobutylpiperazin-1-yl)-2-oxoethyl]piperazin-1-yl}-N-(cyclohexylmethyl) benzamide], for which the Ki was < 1000 nM. The same measure, in the same setting: under `CN(C(=O)c1cccc(N2CCN(CC(=O)N3CCN(C4CCC4)CC3)CC2)c1)C1CCCCC1` [Compound 1068, 3-{4-[2-(4-cyclobutylpiperazin-1-yl)-2-oxoethyl]piperazin-1-yl}-N-cyclohexyl-N-methylbenzamide] stands < 1000 nM; under `COc1ccc2cc(-c3ccc(N4CCN(CC(=O)N5CCN(C6CCC6)CC5)CC4)nn3)ccc2c1` [Compound 1029, 3-{4-[2-(4-cyclobutylpiperazin-1-yl)-2-oxoethyl]piperazin-1-yl}-6-(6-methoxy-2-naphthyl)pyridazine], < 1000 nM; under `CCCCCNC(=O)c1cccc(N2CCN(CC(=O)N3CCN(C4CCC4)CC3)CC2)c1` [Compound 1075, 3-{4-[2-(4-cyclobutylpiperazin-1-yl)-2-oxoethyl]piperazin-1-yl}-N-pentylbenzamide], < 1000 nM.

Regarding `O=C(NC1CCCCCC1)c1cccc(N2CCN(CC(=O)N3CCN(C4CCC4)CC3)CC2)c1` [Compound 1083, 3-{4-[2-(4-cyclobutylpiperazin-1-yl)-2-oxoethyl]piperazin-1-yl}-N-cycloheptylbenzamide], the Ki was < 1000 nM. The same measure, in the same setting: under `CC(C)c1ccccc1-c1cnc(N2CCN(CC(=O)N3CCN(C4CCC4)CC3)CC2)cn1` [Compound 971, 2-{4-[2-(4-cyclobutylpiperazin-1-yl)-2-oxoethyl]piperazin-1-yl}-5-(2-isopropylphenyl)pyrazine] stands < 1000 nM.

The same test, now with this note: assay of Example 7; "*" in Ki of Table II; read-out: Ki.
Regarding `CC(C)CCNC(=O)c1ccc(N2CCN(CC(=O)N3CCN(C4CCC4)CC3)CC2)nc1` [Compound 1179, 6-{4-[2-(4-cyclobutylpiperazin-1-yl)-2-oxoethyl]piperazin-1-yl}-N-(3-methylbutyl)nicotinamide], the Ki is < 1000 nM. `CCOC(=O)c1ccc(-c2ccc(N3CCN(CC(=O)N4CCN(C5CCC5)CC4)CC3)cc2)cc1` [Compound 1199, ethyl 4′-{4-[2-(4-cyclobutylpiperazin-1-yl)-2-oxoethyl]piperazin-1-yl}biphenyl-4-carboxylate]: the Ki is < 1000 nM. For the compound `O=C(c1ccc(N2CCN(CC(=O)N3CCN(C4CCC4)CC3)CC2)cc1)C1CCC1` [Compound 1194, cyclobutyl(4-{4-[2-(4-cyclobutylpiperazin-1-yl)-2-oxoethyl]piperazin-1-yl}phenyl)methanone], the Ki is < 1000 nM.

As for `CCNC(=O)c1ccc(N2CCN(CC(=O)N3CCN(C4CCC4)CC3)CC2)nc1` [Compound 1174, 6-{4-[2-(4-cyclobutylpiperazin-1-yl)-2-oxoethyl]piperazin-1-yl}-N-ethylnicotinamide], the Ki was < 1000 nM. Same read-out and setting: the result for `Cc1ccc(C(=O)NC2CCN(CC(=O)N3CCN(C4CCC4)CC3)C2)cc1` (centres unmarked) [Compound 1231, N-{1-[2-(4-cyclobutylpiperazin-1-yl)-2-oxoethyl]pyrrolidin-3-yl}-4-methylbenzamide] reads < 1000 nM; that for `CCC(C)NC(=O)c1ccc(N2CCN(CC(=O)N3CCN(C4CCC4)CC3)CC2)nc1` (centres unmarked) [Compound 1205, N-(sec-butyl)-6-{4-[2-(4-cyclobutylpiperazin-1-yl)-2-oxoethyl]piperazin-1-yl}nicotinamide], < 1000 nM. The same measure, in the same setting: under `N#Cc1cnc(N2CCN(CC(=O)N3CCN(C4CCC4)CC3)CC2)cn1` [Compound 1158, 5-{4-[2-(4-cyclobutylpiperazin-1-yl)-2-oxoethyl]piperazin-1-yl}pyrazine-2-carbonitrile] stands < 1000 nM; under `CCC(CC)CNC(=O)c1ccc(N2CCN(CC(=O)N3CCN(C4CCC4)CC3)CC2)cc1` [Compound 1146, 4-{4-[2-(4-cyclobutylpiperazin-1-yl)-2-oxoethyl]piperazin-1-yl}-N-(2-ethylbutyl)benzamide], < 1000 nM; under `O=C(NC1CCN(CC(=O)N2CCN(C3CCC3)CC2)CC1)C1CCCCCC1` [Compound 1228, N-{1-[2-(4-cyclobutylpiperazin-1-yl)-2-oxoethyl]piperidin-4-yl} cycloheptanecarboxamide], < 1000 nM.

The same test, now with this note: assay of Example 7; symbol * in column headed Ki of Table II; read-out: Ki.
Turning to `O=C(CN1CCN(c2cccc(Cl)c2)CC1)N1CCN(C2CCC2)CC1` [Compound 301, 1-(3-chlorophenyl)-4-[2-(4-cyclobutylpiperazin-1-yl)-2-oxoethyl]piperazine], the Ki is < 1000 nM. As to `O=C(CN1CCN(c2cccc(C(=O)N3CCCCCC3)c2)CC1)N1CCN(C2CCC2)CC1` [Compound 289, 1-(3-{4-[2-(4-cyclobutylpiperazin-1-yl)-2-oxoethyl]piperazin-1-yl}benzoyl)azepane], the inhibition constant Ki was < 1000 nM.

Regarding `O=C(CN1CCN(c2cccc(Br)c2)CC1)N1CCN(C2CCC2)CC1` [Compound 293, 1-(3-bromophenyl)-4-[2-(4-cyclobutylpiperazin-1-yl)-2-oxoethyl]piperazine], the inhibitory constant (Ki) is < 1000 nM. As to `CCCN(CC1CC1)C1CCN(CC(=O)N2CCN(C3CCC3)CC2)CC1` [Compound 431, 1-[2-(4-cyclobutylpiperazin-1-yl)-2-oxoethyl]-N-(cyclopropylmethyl)-N-propylpiperidin-4-amine], the Ki was < 1000 nM. On the same count and under the same terms, under `CC1CCN(C2CCN(CC(=O)N3CCN(C4CCC4)CC3)CC2)CC1` [Compound 428, 1′-[2-(4-cyclobutylpiperazin-1-yl)-2-oxoethyl]-4-methyl-1,4′-bipiperidine] stands < 1000 nM.
